Laboratory results taken from patent publication US20020156236A1, “Binding sites for phosphotyrosine binding domains” (priority 1995, published 2002).
Where a SMILES comes first, the peptide text is derived from it.

Target: T1, PTB domain/c-erbB2 binding (GST-PTB domain of SHC; c-erbB2 from SKBR3 lysate) (Homo sapiens, UniProt P29353)
T1 construct: GST-PTB domain fusion proteins were expressed from recombinant baculovirus in sf9 cells; made in house; host or cells: Sf9 cells (recombinant baculovirus) for GST-PTB; c-erbB2 endogenous in SKBR3 cell lysate
T1 sequence (P29353 156-341): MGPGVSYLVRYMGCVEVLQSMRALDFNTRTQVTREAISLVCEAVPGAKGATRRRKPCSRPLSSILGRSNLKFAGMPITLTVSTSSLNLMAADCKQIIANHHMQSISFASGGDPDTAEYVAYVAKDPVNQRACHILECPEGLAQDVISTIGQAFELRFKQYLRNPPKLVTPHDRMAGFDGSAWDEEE
Assay: biochemical
Conditions: Inhibition (relative inhibition scale of IC50)

Structure (SMILES) | IC50 [µM]
CC(C)C[C@H](NC(=O)[C@H](CC(N)=O)NC(=O)[C@H](CC(=O)O)NC(=O)[C@H](Cc1ccccc1)NC(=O)[C@H](C)NC(=O)[C@@H]1CCCN1C(=O)[C@H](CO)NC(=O)[C@H](Cc1ccccc1)NC(=O)[C@H](C)NC(=O)[C@@H]1CCCN1)C(=O)N[C@@H](Cc1ccc(O)cc1)C(=O)N[C@@H](Cc1ccc(OP(=O)(O)O)cc1)C(=O)N[C@@H](Cc1c[nH]c2ccccc12)C(=O)N[C@@H](CC(=O)O)C(=O)N[C@@H](CC(=O)O)C(=O)N[C@@H](CC(N)=O)C(=O)N[C@@H](CO)C(=O)N[C@@H](CO)C(=O)N[C@@H](CCC(=O)O)C(=O)N[C@@H](CCC(N)=O)C(=O)NCC(=O)O [PAFSPAFDNLY (pY) WDDNSSEQG, PAFSPAFDNLY(pY)WDDNSSEQG] (HELM PEPTIDE1{P.A.F.S.P.A.F.D.N.L.Y.[O=C([C@H](Cc1ccc(OP(=O)(O)O)cc1)N[*:1])[*:2]].W.D.D.N.S.S.E.Q.G}$$$$V2.0) | 0.5 to 5
CC(C)C[C@H](NC(=O)[C@H](CC(N)=O)NC(=O)[C@H](CC(=O)O)NC(=O)[C@H](Cc1ccccc1)NC(=O)[C@H](C)NC(=O)[C@@H]1CCCN1C(=O)[C@H](CO)NC(=O)[C@H](Cc1ccccc1)NC(=O)[C@H](C)NC(=O)[C@@H]1CCCN1)C(=O)N[C@@H](Cc1ccc(O)cc1)C(=O)N[C@@H](Cc1ccc(OP(=O)(O)O)cc1)C(=O)N[C@@H](Cc1c[nH]c2ccccc12)C(=O)N[C@@H](CC(=O)O)C(=O)N[C@@H](CC(N)=O)C(=O)N[C@@H](CC(N)=O)C(=O)N[C@@H](CO)C(=O)N[C@@H](CO)C(=O)N[C@@H](CCC(=O)O)C(=O)N[C@@H](CCC(N)=O)C(=O)NCC(=O)O [PAFSPAFDNLY (pY) WDNNSSEQG, PAFSPAFDNLY(pY)WDNNSSEQG] (HELM PEPTIDE1{P.A.F.S.P.A.F.D.N.L.Y.[O=C([C@H](Cc1ccc(OP(=O)(O)O)cc1)N[*:1])[*:2]].W.D.N.N.S.S.E.Q.G}$$$$V2.0) | 0.5 to 5
CC(C)C[C@H](NC(=O)[C@H](CC(N)=O)NC(=O)[C@H](CC(=O)O)NC(=O)[C@H](Cc1ccccc1)NC(=O)[C@H](C)NC(=O)[C@@H]1CCCN1C(=O)[C@H](CO)NC(=O)[C@H](Cc1ccccc1)NC(=O)[C@H](C)NC(=O)[C@@H]1CCCN1)C(=O)N[C@@H](Cc1ccc(O)cc1)C(=O)N[C@@H](Cc1ccc(OP(=O)(O)O)cc1)C(=O)N[C@@H](Cc1c[nH]c2ccccc12)C(=O)N[C@@H](CC(=O)O)C(=O)N[C@@H](CCC(N)=O)C(=O)N[C@@H](C)C(=O)N[C@@H](CO)C(=O)N[C@@H](CO)C(=O)N[C@@H](CCC(=O)O)C(=O)N[C@@H](CCC(N)=O)C(=O)NCC(=O)O [PAFSPAFDNLY (pY) WDQASSEQG, PAFSPAFDNLY(pY)WDQASSEQG] (HELM PEPTIDE1{P.A.F.S.P.A.F.D.N.L.Y.[O=C([C@H](Cc1ccc(OP(=O)(O)O)cc1)N[*:1])[*:2]].W.D.Q.A.S.S.E.Q.G}$$$$V2.0) | 0.5 to 5
CC(C)C[C@H](NC(=O)[C@H](CC(N)=O)NC(=O)[C@H](CC(=O)O)NC(=O)[C@H](Cc1ccccc1)NC(=O)[C@H](C)NC(=O)[C@@H]1CCCN1C(=O)[C@H](CO)NC(=O)[C@H](Cc1ccccc1)NC(=O)[C@H](C)NC(=O)[C@@H]1CCCN1)C(=O)N[C@@H](Cc1ccc(O)cc1)C(=O)N[C@@H](Cc1ccc(OP(=O)(O)O)cc1)C(=O)N[C@@H](Cc1c[nH]c2ccccc12)C(=O)N[C@@H](CC(=O)O)C(=O)N[C@@H](CCC(N)=O)C(=O)N[C@@H](CC(N)=O)C(=O)N[C@@H](C)C(=O)N[C@@H](CO)C(=O)N[C@@H](CCC(=O)O)C(=O)N[C@@H](CCC(N)=O)C(=O)NCC(=O)O [PAFSPAFDNLY (pY) WDQNASEQG, PAFSPAFDNLY(pY)WDQNASEQG] (HELM PEPTIDE1{P.A.F.S.P.A.F.D.N.L.Y.[O=C([C@H](Cc1ccc(OP(=O)(O)O)cc1)N[*:1])[*:2]].W.D.Q.N.A.S.E.Q.G}$$$$V2.0) | 0.5 to 5
